These results are taken from patent US12227488B2, “Small molecule degraders of Helios and methods of use” (DANA-FARBER CANCER INSTITUTE, INC., priority 2018, dated 2025).

SMILES strings stand for the structures.

Assay [1] deals with T1, CRBN and Helios (IKZF2) (Homo sapiens, UniProt Q96SW2+Q9UKS7).
T1 construct: His (N); Strep (N)
The assay is described as follows: TR-FRET dimerization assay (CRBN-IKZF2 ternary complex formation). The assay is classed as binding. Particulars: n=1. How it is done: A focused library of imide analogs was synthesized and assessed for their ability to induce dimerization between CRBN and Helios in a time-resolved fluorescence energy transfer (TR-FRET) assay (FIG. 1A).
Prior to TR-FRET measurements being conducted, the reactions were incubated for 15 min at rt. […] The TR-FRET signal of each data point was extracted by calculating the 520/490 nm ratios. Data from single measurements (n=1), each calculated as an average of at least three technical replicates per well per experiment are presented in Table 1.
BODIPY-labeled CRBN in complex with Damage Specific DNA Binding Protein 1 (DDB1) harboring an internal deletion of the flexible BPB propeller (DDB1AB-CRBN) and in vitro biotinylated IKZF2 were treated with increasing concentrations of the indicated compounds in the presence of tracer amounts of Terbium-Streptavidin (Tb-SA). Compound-induced recruitment of IKZF2 to CRBN was quantified following the 520/490 TR-FRET ratio using a PHERAstar® plate reader (BMG) utilizing two synchronized PMTs to reduce background.

For assay [2], the target named is T2, IKZF1 (Homo sapiens, UniProt Q13422).
T2 construct: expressed in transfected cells; host or cells: Flp-In 293
T2 sequence (Q13422 83-213 isoform Q13422-7 limits assumed): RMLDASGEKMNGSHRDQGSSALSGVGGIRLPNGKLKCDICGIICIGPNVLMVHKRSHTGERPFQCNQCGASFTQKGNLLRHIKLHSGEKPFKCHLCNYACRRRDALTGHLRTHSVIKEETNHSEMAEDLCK
T2 sequence (Q96SW2 whole entry partner): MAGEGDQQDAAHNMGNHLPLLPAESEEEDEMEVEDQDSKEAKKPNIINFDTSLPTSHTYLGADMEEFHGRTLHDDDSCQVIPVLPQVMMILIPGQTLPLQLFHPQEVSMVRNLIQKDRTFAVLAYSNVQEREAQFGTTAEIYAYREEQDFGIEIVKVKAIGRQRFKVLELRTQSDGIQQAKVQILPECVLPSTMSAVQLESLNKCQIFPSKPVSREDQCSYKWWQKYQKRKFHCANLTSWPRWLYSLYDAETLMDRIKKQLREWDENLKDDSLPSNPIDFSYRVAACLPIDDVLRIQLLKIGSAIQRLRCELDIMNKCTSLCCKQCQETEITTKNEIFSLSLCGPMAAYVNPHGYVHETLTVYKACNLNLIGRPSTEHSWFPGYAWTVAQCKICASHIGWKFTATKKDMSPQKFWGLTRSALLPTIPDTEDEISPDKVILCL
T2 sequence (Q16531 2-1140 partner limits assumed): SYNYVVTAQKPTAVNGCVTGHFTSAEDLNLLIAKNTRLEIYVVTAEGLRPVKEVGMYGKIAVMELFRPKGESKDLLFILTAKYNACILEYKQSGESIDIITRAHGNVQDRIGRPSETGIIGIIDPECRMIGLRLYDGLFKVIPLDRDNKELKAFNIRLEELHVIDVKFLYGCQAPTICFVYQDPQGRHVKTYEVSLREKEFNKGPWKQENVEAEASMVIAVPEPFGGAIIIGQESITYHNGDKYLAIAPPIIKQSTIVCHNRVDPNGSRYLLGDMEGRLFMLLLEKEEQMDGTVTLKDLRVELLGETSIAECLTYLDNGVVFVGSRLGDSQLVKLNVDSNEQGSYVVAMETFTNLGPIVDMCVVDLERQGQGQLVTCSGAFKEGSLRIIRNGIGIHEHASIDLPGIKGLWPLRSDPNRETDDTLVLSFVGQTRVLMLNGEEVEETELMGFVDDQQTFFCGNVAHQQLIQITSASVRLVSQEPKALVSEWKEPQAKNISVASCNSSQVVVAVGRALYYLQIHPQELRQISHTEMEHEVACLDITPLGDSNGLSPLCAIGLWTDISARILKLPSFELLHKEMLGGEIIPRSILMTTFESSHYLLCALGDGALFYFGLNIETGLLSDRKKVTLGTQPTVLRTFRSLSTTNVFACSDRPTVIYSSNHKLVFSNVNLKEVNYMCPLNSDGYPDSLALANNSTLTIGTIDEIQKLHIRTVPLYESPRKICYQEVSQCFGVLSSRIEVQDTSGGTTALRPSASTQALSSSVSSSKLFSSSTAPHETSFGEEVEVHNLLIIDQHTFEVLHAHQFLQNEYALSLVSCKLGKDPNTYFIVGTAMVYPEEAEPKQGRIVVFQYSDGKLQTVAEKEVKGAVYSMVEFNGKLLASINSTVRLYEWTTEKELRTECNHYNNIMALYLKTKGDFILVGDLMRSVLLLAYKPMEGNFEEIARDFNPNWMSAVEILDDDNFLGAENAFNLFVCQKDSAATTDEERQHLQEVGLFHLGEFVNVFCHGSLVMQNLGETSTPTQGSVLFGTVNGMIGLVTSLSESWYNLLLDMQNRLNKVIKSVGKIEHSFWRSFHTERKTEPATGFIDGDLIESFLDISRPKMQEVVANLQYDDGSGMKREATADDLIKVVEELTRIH
The assay is described as follows: Cellular degradation assay, eGFP-IKZF1Δ fusion with mCherry reporter in Flp-In 293 cells. The format is cell-based. Particulars: for IKZF1 GFP/RFP Relative Abundance: 5 h incubation, n=1. The procedure: (§1) IKZF1Δ, IKZF2Δ, GSPT1 and SALL4 ZnF1-2 were subcloned into mammalian pcDNA5/FRT Vector (Ampicillin and Hygromycin B resistant) modified to contain MCS-eGFP-P2A-mCherry. […] Following 2-3 passage cycle, FACS (FACSAria™ II, BD) was used to enrich for cells expressing eGFP and mCherry. Cells stably expressing the IKZF1Δ, IKZF2Δ, GSPT1 or SALL4 Znf1-2 GFP fusions with mCherry reporter were seeded at 30-50% confluency in 384-well plates with 50 μL FluoroBrite™ DMEM media (Thermo Fisher Scientific, A18967) containing 10% FBS per well a day before compound treatment. Compound titrations were dispensed using a D300e Digital Dispenser (HP), normalized to 0.5% DMSO, and incubated with cells for 5 hours.
(§2) The resulting images were analyzed using CellProfiler™. A series of image analysis steps (‘image analysis pipeline’) was constructed. First, the red and green channels were aligned and cropped to target the middle of each well (to avoid analysis of heavily clumped cells at the edges), and a background illumination function was calculated for both red and green channels of each well individually and subtracted to correct for illumination variations across the 384-well plate from various sources of error. An additional step was then applied to the green channel to suppress the analysis of large auto fluorescent artifacts and enhance the analysis of cell specific fluorescence by way of selecting for objects under a given size, 30 A.U., and with a given shape, speckles. mCherry-positive cells were then identified in the red channel filtering for objects between 8-60 pixels in diameter and using intensity to distinguish between clumped objects. The green channel was then segmented into GFP positive and negative areas and objects were labeled as GFP positive if at least 40% of it overlapped with a GFP positive area. The fraction of GFP-positive cells/mCherry-positive cells in each well was then calculated, and the green and red images were rescaled for visualization.
(§3) The degradation assay was performed as described above. […] Degradation was measured after 5 h of compound treatment and the concentrations that lead to half degradation at 5 h (DC50,5 h) were calculated using the nonlinear fit variable slope model (GraphPad Software).

For assay [3], the system named is IKZF2. The assay is described as follows: Cellular degradation assay, eGFP-IKZF2Δ fusion with mCherry reporter in Flp-In 293 cells. The assay is classed as cell-based. The following applies: for IKZF2 GFP/RFP Relative Abundance: 5 h incubation, n=1. The procedure: as §1, §2, §3
Setting [4] is: compound concentration 6.6667E−05.
Where [5] appears, read: compound concentration 6.6667E−06.
Where [6] appears, read: compound concentration 6.6667E−07 (667 nM).
The mark [7] stands for this setting: compound concentration 2.00E−05.
Where [8] appears, read: compound concentration 2.00E−06.
Setting [9] is: compound concentration 2.00E−07.
The mark [10] stands for this setting: half degradation at 5 h (DC50,5 h), triplicate, 11 point dose response.

T1 sequence (Q96SW2 whole entry): as the sequence (Q96SW2 whole entry partner) above
T1 sequence (Q9UKS7 whole entry): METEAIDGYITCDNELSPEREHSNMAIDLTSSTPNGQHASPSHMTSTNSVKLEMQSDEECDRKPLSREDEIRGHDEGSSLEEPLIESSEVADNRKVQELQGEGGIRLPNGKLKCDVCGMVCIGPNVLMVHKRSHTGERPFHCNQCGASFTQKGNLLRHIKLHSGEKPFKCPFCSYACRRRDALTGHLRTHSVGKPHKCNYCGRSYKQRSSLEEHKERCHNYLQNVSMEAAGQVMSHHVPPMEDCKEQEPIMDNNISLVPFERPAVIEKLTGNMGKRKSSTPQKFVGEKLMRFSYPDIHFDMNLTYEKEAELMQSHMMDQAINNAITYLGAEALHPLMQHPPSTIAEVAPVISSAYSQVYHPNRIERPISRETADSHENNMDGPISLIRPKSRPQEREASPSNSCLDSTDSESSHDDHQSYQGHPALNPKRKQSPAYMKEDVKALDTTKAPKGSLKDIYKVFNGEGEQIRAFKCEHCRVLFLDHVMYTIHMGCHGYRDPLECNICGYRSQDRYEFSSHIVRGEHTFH

Take `Cc1ccc(NC(=O)Nc2cccc3c(NC4=CC(=O)N(C5CCC(=O)NC5=O)C4=O)cccc23)cc1Cl` (stereo not drawn) [Compound 124, 1-(3-chloro-4-methylphenyl)-3-(5-((1-(2,6-dioxopiperidin-3-yl)-2,5-dioxo-2,5-dihydro-1H-pyrrol-3-yl)amino)naphthalen-1-yl)urea]: the “TR-FRET-IKZF2 (Normalized to CC-885)” value worked out at 0.159 in assay [1] (setting [4]), 0.130 in assay [1] (setting [5]) and 0.077 in assay [1] (setting [6]). Moreover, the “IKZF1 GFP/RFP Relative Abundance” value in assay [2] (setting [7]) was found to be 0.689; in assay [2] (setting [8]), 0.978; in assay [2] (setting [9]), 1.005. Moreover, the “IKZF2 GFP/RFP Relative Abundance” value is reported as 0.829 in assay [3] (setting [7]), 1.015 in assay [3] (setting [8]) and 0.985 in assay [3] (setting [9]).

On to `Cc1ccc(NC(=O)OCCc2cccc(NC3=CC(=O)N(C4CCC(=O)NC4=O)C3=O)c2)cc1Cl` (stereo not drawn) [Compound 110, 3-((1-(2,6-dioxopiperidin-3-yl)-2,5-dioxo-2,5-dihydro-1H-pyrrol-3-yl)amino)phenethyl (3-chloro-4-methylphenyl)carbamate], for which the “TR-FRET-IKZF2 (Normalized to CC-885)” value in assay [1] (setting [4]) came to 1.017; in assay [1] (setting [5]) it was 1.086; in assay [1] (setting [6]) it was 0.853. Moreover, the figures for the “IKZF1 GFP/RFP Relative Abundance” value in assay [2] (setting [7]), in assay [2] (setting [8]) and in assay [2] (setting [9]) were 0.096, 0.066 and 0.086, respectively. In addition, the figures for the “IKZF2 GFP/RFP Relative Abundance” value in assay [3] (setting [7]), in assay [3] (setting [8]) and in assay [3] (setting [9]) were 0.048, 0.048 and 0.038, respectively.

As to `Cc1ccc(NC(=O)N2CCc3ccc(NC4=CC(=O)N(C5CCC(=O)NC5=O)C4=O)cc3C2)cc1Cl` (stereo not drawn) [Compound 109, N-(3-chloro-4-methylphenyl)-7-((1-(2,6-dioxopiperidin-3-yl)-2,5-dioxo-2,5-dihydro-1H-pyrrol-3-yl)amino)-3,4-dihydroisoquinoline-2(1H)-carboxamide], the “TR-FRET-IKZF2 (Normalized to CC-885)” value was found to be 0.463 in assay [1] (setting [4]), 0.640 in assay [1] (setting [5]) and 0.506 in assay [1] (setting [6]). Moreover, the “IKZF1 GFP/RFP Relative Abundance” value in assay [2] (setting [7]) amounted to 0.189; in assay [2] (setting [8]), 0.101; in assay [2] (setting [9]), 0.142. Further, the “IKZF2 GFP/RFP Relative Abundance” value in assay [3] (setting [7]) is 0.563; in assay [3] (setting [8]), 0.313; in assay [3] (setting [9]), 0.539.

Regarding `Cc1ccc(NC(=O)N2Cc3ccc(NC4=CC(=O)N(C5CCC(=O)NC5=O)C4=O)cc3C2)cc1Cl` (stereo not drawn) [Compound 107, N-(3-chloro-4-methylphenyl)-5-((1-(2,6-dioxopiperidin-3-yl)-2,5-dioxo-2,5-dihydro-1H-pyrrol-3-yl)amino)isoindoline-2-carboxamide], the results for the “TR-FRET-IKZF2 (Normalized to CC-885)” value in assay [1] (setting [4]), in assay [1] (setting [5]) and in assay [1] (setting [6]) were 0.086, 0.066 and 0.066, respectively. Also, the “IKZF1 GFP/RFP Relative Abundance” value is 0.245 in assay [2] (setting [7]), 1.043 in assay [2] (setting [8]) and 0.997 in assay [2] (setting [9]). The “IKZF2 GFP/RFP Relative Abundance” value is on record as 0.225 in assay [3] (setting [7]), 1.034 in assay [3] (setting [8]) and 1.048 in assay [3] (setting [9]).

As for `O=C1CCC(N2C(=O)C=C(Nc3cccc(CNC(=O)Nc4ccccc4)c3)C2=O)C(=O)N1` (stereo not drawn) [Compound 119, 1-(3-((1-(2,6-dioxopiperidin-3-yl)-2,5-dioxo-2,5-dihydro-1H-pyrrol-3-yl)amino)benzyl)-3-phenylurea], the “TR-FRET-IKZF2 (Normalized to CC-885)” value in assay [1] (setting [4]) is listed as 0.817; in assay [1] (setting [5]), 0.671; in assay [1] (setting [6]), 0.629. For the same molecule, the results for the “IKZF1 GFP/RFP Relative Abundance” value in assay [2] (setting [7]), in assay [2] (setting [8]) and in assay [2] (setting [9]) were 0.055, 0.079 and 0.101, respectively. For the same molecule, the “IKZF2 GFP/RFP Relative Abundance” value in assay [3] (setting [7]) was determined as 0.392; in assay [3] (setting [8]), 0.516; in assay [3] (setting [9]) it was 0.544.

With `O=C1CCC(N2C(=O)C=C(Nc3cccc(CNC(=O)NCc4ccccc4)c3)C2=O)C(=O)N1` (stereo not drawn) [Compound 81, 1-benzyl-3-(3-((1-(2,6-dioxopiperidin-3-yl)-2,5-dioxo-2,5-dihydro-1H-pyrrol-3-yl)amino)benzyl)urea], the “TR-FRET-IKZF2 (Normalized to CC-885)” value in assay [1] (setting [4]) amounted to 0.703; in assay [1] (setting [5]), 0.585; in assay [1] (setting [6]), 0.519. The “IKZF1 GFP/RFP Relative Abundance” value stood at 0.063 in assay [2] (setting [7]), 0.056 in assay [2] (setting [8]) and 0.094 in assay [2] (setting [9]). In addition, the “IKZF2 GFP/RFP Relative Abundance” value in assay [3] (setting [7]) amounted to 0.587; in assay [3] (setting [8]) it was 0.660; in assay [3] (setting [9]), 0.737.

With `CC(CC(=O)Nc1cccc(C(F)(F)F)c1)c1cccc(NC2=CC(=O)N(C3CCC(=O)NC3=O)C2=O)c1` (stereo not drawn) [Compound 140, 3-(3-((1-(2,6-dioxopiperidin-3-yl)-2,5-dioxo-2,5-dihydro-1H-pyrrol-3-yl)amino)phenyl)-N-(3-(trifluoromethyl)phenyl)butanamide], the “TR-FRET-IKZF2 (Normalized to CC-885)” value in assay [1] (setting [4]) is 2.291; in assay [1] (setting [5]), 1.72; in assay [1] (setting [6]), 1.626. Moreover, the “IKZF2 GFP/RFP Relative Abundance” value in assay [3] (setting [7]) is recorded as 0.174; in assay [3] (setting [8]), 0.017; in assay [3] (setting [9]) it was 0.013.

Regarding `Cc1ccc(NC(=O)CC(C)c2cccc(NC3=CC(=O)N(C4CCC(=O)NC4=O)C3=O)c2)cc1Cl` (stereo not drawn) [Compound 137], the entries for the “TR-FRET-IKZF2 (Normalized to CC-885)” value in assay [1] (setting [4]), in assay [1] (setting [5]) and in assay [1] (setting [6]) were 1.665, 1.677 and 1.665, respectively. Besides, the “IKZF2 GFP/RFP Relative Abundance” value was 0.023 in assay [3] (setting [7]), 0.009 in assay [3] (setting [8]) and 0.011 in assay [3] (setting [9]).

Turning to `Cc1ccc(NC(=O)CNc2cccc(NC3=CC(=O)N(C4CCC(=O)NC4=O)C3=O)c2)cc1Cl` (stereo not drawn) [Compound 78, N-(3-chloro-4-methylphenyl)-2-((3-((1-(2,6-dioxopiperidin-3-yl)-2,5-dioxo-2,5-dihydro-1H-pyrrol-3-yl)amino)phenyl)amino)acetamide], the “potency of IKZF1 degradation, in words” value in assay [2] (Table 3 summary) is “most potent against IKZF1”. Moreover, the half-maximal degradation concentration (DC50) worked out at 1.9 nM in assay [2] (setting [10]) and 2.2 nM in assay [3] (setting [10]).

With `O=C1CCC(N2C(=O)C=C(Nc3cccc(CCC(=O)Nc4ccc(C(F)(F)F)c(Cl)c4)c3)C2=O)C(=O)N1` (stereo not drawn) [Compound 129, N-(3-chloro-4-(trifluoromethyl)phenyl)-3-(3-((1-(2,6-dioxopiperidin-3-yl)-2,5-dioxo-2,5-dihydro-1H-pyrrol-3-yl)amino)phenyl)propanamide], the “TR-FRET-IKZF2 (Normalized to CC-885)” value was determined as 1.626 in assay [1] (setting [4]), 1.551 in assay [1] (setting [5]) and 1.583 in assay [1] (setting [6]). Moreover, the “IKZF2 GFP/RFP Relative Abundance” value worked out at 0.063 in assay [3] (setting [7]), 0.013 in assay [3] (setting [8]) and 0.027 in assay [3] (setting [9]).

A word on the DC50: it is the concentration at which degradation of the target reaches its halfway point. A higher DC50 goes with degradation only at high concentration.
